From ChEMBL document CHEMBL1144161, “ortho-dihydroxyisoflavone derivatives from aged Doenjang (Korean fermented soypaste) and its radical scavenging activity” (Bioorg Med Chem Lett, 2008)
pIC50: −log10 of the molar value.

Key:
[1] = system: Radical scavenging activity; experiment: Antioxidant activity assessed as DPPH radical scavenging activity after 30 mins; assay type: functional
[2] = molecular target: T1, Xanthine dehydrogenase/oxidase (Homo sapiens, UniProt P47989); experiment: Inhibition of xanthine oxidase assessed as decrease of uric acid generation
T1 sequence (P47989 whole entry): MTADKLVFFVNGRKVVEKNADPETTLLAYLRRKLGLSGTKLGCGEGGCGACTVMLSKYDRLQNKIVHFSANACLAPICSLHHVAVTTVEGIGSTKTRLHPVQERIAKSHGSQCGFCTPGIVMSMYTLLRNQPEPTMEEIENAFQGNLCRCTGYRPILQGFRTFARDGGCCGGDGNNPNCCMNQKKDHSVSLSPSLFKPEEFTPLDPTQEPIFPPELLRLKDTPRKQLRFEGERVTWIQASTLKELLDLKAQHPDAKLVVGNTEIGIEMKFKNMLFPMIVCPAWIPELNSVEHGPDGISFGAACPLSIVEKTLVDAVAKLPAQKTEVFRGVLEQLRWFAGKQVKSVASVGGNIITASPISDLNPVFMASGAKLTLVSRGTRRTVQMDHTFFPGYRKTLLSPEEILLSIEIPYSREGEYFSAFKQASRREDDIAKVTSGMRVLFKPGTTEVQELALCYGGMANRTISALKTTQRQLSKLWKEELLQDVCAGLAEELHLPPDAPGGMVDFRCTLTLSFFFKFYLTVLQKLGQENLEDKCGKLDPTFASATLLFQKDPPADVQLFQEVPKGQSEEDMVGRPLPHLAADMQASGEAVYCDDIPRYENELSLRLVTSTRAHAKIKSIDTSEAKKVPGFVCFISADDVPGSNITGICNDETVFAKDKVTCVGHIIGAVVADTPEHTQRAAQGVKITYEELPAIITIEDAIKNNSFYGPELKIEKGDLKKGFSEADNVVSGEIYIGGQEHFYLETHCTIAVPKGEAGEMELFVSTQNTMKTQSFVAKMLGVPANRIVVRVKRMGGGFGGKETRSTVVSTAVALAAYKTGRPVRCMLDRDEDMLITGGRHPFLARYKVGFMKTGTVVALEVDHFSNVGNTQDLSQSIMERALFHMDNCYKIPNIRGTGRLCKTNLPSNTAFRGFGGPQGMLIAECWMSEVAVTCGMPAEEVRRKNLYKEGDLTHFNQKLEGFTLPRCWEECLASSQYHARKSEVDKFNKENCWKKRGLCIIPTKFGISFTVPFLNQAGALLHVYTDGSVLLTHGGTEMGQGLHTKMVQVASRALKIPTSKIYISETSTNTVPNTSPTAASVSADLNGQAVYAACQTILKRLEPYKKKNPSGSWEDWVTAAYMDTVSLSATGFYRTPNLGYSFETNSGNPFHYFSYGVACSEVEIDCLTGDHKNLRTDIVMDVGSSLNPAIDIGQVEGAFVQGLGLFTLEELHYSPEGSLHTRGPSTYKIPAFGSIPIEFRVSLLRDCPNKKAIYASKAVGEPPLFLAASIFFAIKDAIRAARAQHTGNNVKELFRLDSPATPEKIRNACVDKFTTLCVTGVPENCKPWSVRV

[3] = molecular target: T1, Xanthine dehydrogenase/oxidase; experiment: Inhibition of xanthine oxidase assessed as decrease of superoxide generation

| SMILES | pIC50 [1] | pIC50 [2] | pIC50 [3] |
| --- | --- | --- | --- |
| Cc1c(C)c2c(c(C)c1O)CCC(C)(C(=O)O)O2 (configuration not stated) [TROLOX] | 4.31 |  |  |
| O=c1c(-c2ccc(O)cc2)coc2cc(O)ccc12 [DAIDZEIN] |  | < 3.00 | 3.37 |
| COc1cc2c(=O)c(-c3ccc(O)cc3)coc2cc1O [GLYCITEIN] |  | < 3.00 | 3.17 |
| O=C1O[C@H]([C@@H](O)CO)C(O)=C1O [ASCORBIC ACID] | 4.28 |  |  |
| O=c1c(-c2ccc(O)cc2)coc2cc(O)cc(O)c12 [GENISTEIN] |  | < 3.00 | 3.63 |

The remaining lines, values ahead:

| pIC50 [1] | pIC50 [2] | pIC50 [3] | SMILES |
| --- | --- | --- | --- |
| 4.54 | < 3.00 | 4.77 | O=c1c(-c2ccc(O)c(O)c2)coc2cc(O)ccc12 |
| 4.67 | < 3.00 | 5.18 | O=c1c(-c2ccc(O)cc2)coc2c(O)c(O)ccc12 |
| 4.49 | < 3.00 | < 3.00 | O=c1c(-c2ccc(O)cc2)coc2cc(O)c(O)cc12 |
